Columns and labels:
[1] = molecular target: T1, recombinant human FLAP protein (Homo sapiens, UniProt P20292); test: FLAP binding assay (Scintillation Proximity Assay, displacement of [125I]L-691,831); details: read-out: FLAP SPA IC50
T1 construct: made in house; host or cells: Sf9 insect cells (100,000xg membrane fraction used)
T1 sequence (P20292 1-161): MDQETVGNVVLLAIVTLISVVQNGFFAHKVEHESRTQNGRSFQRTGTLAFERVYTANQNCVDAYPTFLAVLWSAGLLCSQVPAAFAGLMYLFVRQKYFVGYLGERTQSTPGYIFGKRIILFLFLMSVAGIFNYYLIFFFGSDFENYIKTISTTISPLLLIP
Method: Compounds are assessed for the ability to bind to FLAP in a binding assay that measures compound-specific displacement of an iodinated (^125I) FLAP inhibitor via a Scintillation Proximity Assay format (adapted from S. Charleson et al., Mol. Pharmacol., 1992, 41, 873-879).
Cell pellets produced from sf9 insect cells expressing recombinant human FLAP protein are resuspended in buffer A [15 mM Tris-HCl (pH 7.5), 2 mM MgCl2, 0.3 mM EDTA, 1 mM PMSF]. The cells are lysed with a Dounce homogenizer and the material is centrifuged at 10,000×g for 10 minutes. The supernatant is then collected and centrifuged at 100,000×g for 60 minutes. To prepare membrane protein for an assay, an aliquot of the 100,000×g pellet is resuspended in 1 ml of buffer A, Dounce homogenized, and finally subjected to polytron mixing (30 seconds). Membrane protein (25 μl, 5 μg) is mixed with WGA SPA beads (Amersham) and stirred for 1 h. […] (final concentrations: beads, 200 μg/well; protein, 5 μg/well; [^125I] probe, 0.08 nM/well (17 nCi/well). The plates are shaken for 2 h before reading on a Microbeta plate reader. Non-specific binding is determined by the addition of 10 μM cold L-691,831 compound.

[2] = test system: synthesis of LTB4 in human whole blood; test: human whole blood LTB4 production inhibition assay; format: cell-based; details: calcimycin stimulated, read-out: hWB LTB4 IC50
Method: Compounds are additionally tested in a human whole blood assay to determine their ability to inhibit the synthesis of LTB4 in a cellular system. Compounds are combined with heparinized human whole blood and incubated for 15 minutes at 37° C. Calcimycin (20 μM final, prepared in phosphate-buffered saline, pH 7.4) is then added and the mixture is incubated for another 30 minutes at 37° C. The samples are centrifuged for 5 min at low speed (1500×g) and the plasma layer is removed. Plasma LTB4 concentrations are then measured using an antibody-based homogenous time-resolved fluorescence method (CisBio, Bedford, Mass.).

Structure (SMILES)	IC50 [1] [nM]	IC50 [2] [nM]
COCCNc1cnc(-c2nc(C(C)(c3ccc(-c4cnc(N)nc4)nc3)C(C)C)no2)cn1 (centres unmarked) [Example 10, 5-{5-[2-(5-{5-[(2-methoxyethyl)amino]pyrazin-2-yl}-1,2,4-oxadiazol-3-yl)-3-methylbutan-2-yl]pyridin-2-yl}pyrimidin-2-amine]	4.9	60
CC(C)C(C)(c1ccc(-c2cnc(N)nc2)nc1)c1noc(-c2cnn3cccnc23)n1 (centres unmarked) [Example 11, 5-(5-{3-methyl-2-[5-(pyrazolo[1,5-a]pyrimidin-3-yl)-1,2,4-oxadiazol-3-yl]butan-2-yl}pyridin-2-yl)pyrimidin-2-amine]	2.9	40
CCNc1cnc(-c2nc(C(C)(c3ccc(-c4cnc(N)nc4)nc3)C(C)C)no2)cn1 (centres unmarked) [Example 12, 5-[5-(2-{5-[5-(ethylamino)pyrazin-2-yl]-1,2,4-oxadiazol-3-yl}-3-methylbutan-2-yl)pyridin-2-yl]pyrimidin-2-amine]	3.6	55
CC(C)C(C)(c1ccc(-c2cnc(N)nc2)nc1)c1noc(-c2cnc(N3CCNCC3)cn2)n1 (centres unmarked) [Example 13, 5-[5-(3-methyl-2-{5-[5-(piperazin-1-yl)pyrazin-2-yl]-1,2,4-oxadiazol-3-yl}butan-2-yl)pyridin-2-yl]pyrimidin-2-amine]	10.9	490
CC(C)C(C)(c1ccc(-c2cnc(N)nc2)nc1)c1noc(-c2cnn(CC(F)F)c2)n1 (centres unmarked) [Example 14, 5-[5-(2-{5-[1-(2,2-difluoroethyl)-1H-pyrazol-4-yl]-1,2,4-oxadiazol-3-yl}-3-methylbutan-2-yl)pyridin-2-yl]pyrimidin-2-amine]	6.5	45
CNc1cnc(-c2nc(C(C)(c3ccc(-c4cnc(N)nc4)nc3)C(C)C)no2)cn1 (centres unmarked) [Example 15, 5-[5-(3-methyl-2-{5-[5-(methylamino)pyrazin-2-yl]-1,2,4-oxadiazol-3-yl}butan-2-yl)pyridin-2-yl]pyrimidin-2-amine]	2.3	75
CC(C)Nc1cnc(-c2nc(C(C)(c3ccc(-c4cnc(N)nc4)nc3)C(C)C)no2)cn1 (centres unmarked) [Example 16, 5-[5-(3-methyl-2-{5-[5-(propan-2-ylamino)pyrazin-2-yl]-1,2,4-oxadiazol-3-yl}butan-2-yl)pyridin-2-yl]pyrimidin-2-amine]	2.3	65
CC(C)C(C)(c1ccc(-c2cnc(N)nc2)nc1)c1noc(-c2cnn(CCF)c2)n1 (centres unmarked) [Example 17, 5-[5-(2-{5-[1-(2-fluoroethyl)-1H-pyrazol-4-yl]-1,2,4-oxadiazol-3-yl}-3-methylbutan-2-yl)pyridin-2-yl]pyrimidin-2-amine]	4.5	53
COCCN(C)c1cnc(-c2nc(C(C)(c3ccc(-c4cnc(N)nc4)nc3)C(C)C)no2)cn1 (centres unmarked) [Example 18, 5-{5-[2-(5-{5-[(2-methoxyethyl)(methyl)amino]pyrazin-2-yl}-1,2,4-oxadiazol-3-yl)-3-methylbutan-2-yl]pyridin-2-yl}pyrimidin-2-amine]	2.7	83
CC(C)C(C)(c1ccc(-c2cnc(N)nc2)nc1)c1noc(-c2cnc(NC[C@@H](C)O)cn2)n1 (stereo partly drawn) [Example 19, (2R)-1-{[5-(3-{2-[6-(2-aminopyrimidin-5-yl)pyridin-3-yl]-3-methylbutan-2-yl}-1,2,4-oxadiazol-5-yl)pyrazin-2-yl]amino}propan-2-ol]	4.8	140
CC(C)C(C)(c1ccc(-c2cnc(N)nc2)nc1)c1noc(-c2cnc(NC(C)(C)CO)cn2)n1 (centres unmarked) [Example 20, 2-{[5-(3-{2-[6-(2-aminopyrimidin-5-yl)pyridin-3-yl]-3-methylbutan-2-yl}-1,2,4-oxadiazol-5-yl)pyrazin-2-yl]amino}-2-methylpropan-1-ol]	4	140
CC(C)C(C)(c1ccc(-c2cnc(N)nc2)nc1)c1noc(-c2cn(C)cn2)n1 (centres unmarked) [Example 21, 5-(5-{3-methyl-2-[5-(1-methyl-1H-imidazol-4-yl)-1,2,4-oxadiazol-3-yl]butan-2-yl}pyridin-2-yl)pyrimidin-2-amine]	51.2	570
CC(C)C(C)(c1ccc(-c2cnc(N)nc2)nc1)c1noc(-c2cnc(NC[C@H](C)O)cn2)n1 (stereo partly drawn) [Example 22, (2S)-1-{[5-(3-{2-[6-(2-aminopyrimidin-5-yl)pyridin-3-yl]-3-methylbutan-2-yl}-1,2,4-oxadiazol-5-yl)pyrazin-2-yl]amino}propan-2-ol]	3.6	140
COCCn1cc(-c2nc([C@@](C)(c3ccc(-c4cnc(N)nc4)nc3)C(C)C)no2)cn1 [Example 23, 5-{5-[(2R)-2-{5-[1-(2-methoxyethyl)-1H-pyrazol-4-yl]-1,2,4-oxadiazol-3-yl}-3-methylbutan-2-yl]pyridin-2-yl}pyrimidin-2-amine]	3.9	39
COCCn1cc(-c2nc([C@](C)(c3ccc(-c4cnc(N)nc4)nc3)C(C)C)no2)cn1 [Example 24, 5-{5-[(2S)-2-{5-[1-(2-methoxyethyl)-1H-pyrazol-4-yl]-1,2,4-oxadiazol-3-yl}-3-methylbutan-2-yl]pyridin-2-yl}pyrimidin-2-amine]	170	990
CC(C)C(C)(c1ccc(-c2cnc(N)nc2)nc1)c1noc(NCCO)n1 (centres unmarked) [Example 25, 2-[(3-{2-[6-(2-aminopyrimidin-5-yl)pyridin-3-yl]-3-methylbutan-2-yl}-1,2,4-oxadiazol-5-yl)amino]ethanol]	520	> 5000
CC(C)C(C)(c1ccc(-c2cnc(N)nc2)nc1)c1noc(N2CCNCC2)n1 (centres unmarked) [Example 26, 5-(5-{3-methyl-2-[5-(piperazin-1-yl)-1,2,4-oxadiazol-3-yl]butan-2-yl}pyridin-2-yl)pyrimidin-2-amine]	400	3900
COCCNc1ccc(-c2nc(C(C)(c3ccc(-c4cnc(N)nc4)nc3)C(C)C)no2)nn1 (centres unmarked) [Example 27, 6-(3-{2-[6-(2-aminopyrimidin-5-yl)pyridin-3-yl]-3-methylbutan-2-yl}-1,2,4-oxadiazol-5-yl)-N-(2-methoxyethyl)pyridazin-3-amine]	7.5	71
CC(C)n1cc(-c2nc(C(C)(c3ccc(-c4cnc(N)nc4)nc3)C(C)C)no2)cn1 (centres unmarked) [Example 28, 5-[5-(3-methyl-2-{5-[1-(propan-2-yl)-1H-pyrazol-4-yl]-1,2,4-oxadiazol-3-yl}butan-2-yl)pyridin-2-yl]pyrimidin-2-amine]	3.8	72
CCn1cc(-c2nc(C(C)(c3ccc(-c4cnc(N)nc4)nc3)C(C)C)no2)cn1 (centres unmarked) [Example 29, 5-(5-{2-[5-(1-ethyl-1H-pyrazol-4-yl)-1,2,4-oxadiazol-3-yl]-3-methylbutan-2-yl}pyridin-2-yl)pyrimidin-2-amine]	4	40
COCCOCCn1cc(-c2nc(C(C)(c3ccc(-c4cnc(N)nc4)nc3)C(C)C)no2)cn1 (centres unmarked) [Example 30, 5-{5-[2-(5-{1-[2-(2-methoxyethoxy)ethyl]-1H-pyrazol-4-yl}-1,2,4-oxadiazol-3-yl)-3-methylbutan-2-yl]pyridin-2-yl}pyrimidin-2-amine]	12	160
CC(C)[C@](C)(c1ccc(-c2cnc(N)nc2)nc1)c1noc(-c2cnn(C3COC3)c2)n1 [Example 31, 5-{5-[(2R)-3-methyl-2-{5-[1-(oxetan-3-yl)-1H-pyrazol-4-yl]-1,2,4-oxadiazol-3-yl}butan-2-yl]pyridin-2-yl}pyrimidin-2-amine]	1.4	12
CC(C)C(C)(c1ccc(-c2cnc(N)nc2)nc1)c1noc(-c2ccc(NCC(C)(C)O)nn2)n1 (centres unmarked) [Example 32, 1-{[6-(3-{2-[6-(2-aminopyrimidin-5-yl)pyridin-3-yl]-3-methylbutan-2-yl}-1,2,4-oxadiazol-5-yl)pyridazin-3-yl]amino}-2-methylpropan-2-ol]	17.3	860
CCOC(=O)C(C)(C)Cn1cc(-c2nc(C(C)(c3ccc(-c4cnc(N)nc4)nc3)C(C)C)no2)cn1 (centres unmarked) [Example 33, ethyl 3-[4-(3-{2-[6-(2-aminopyrimidin-5-yl)pyridin-3-yl]-3-methylbutan-2-yl}-1,2,4-oxadiazol-5-yl)-1H-pyrazol-1-yl]-2,2-dimethylpropanoate]	5.2	210
CC(C)[C@](C)(c1ccc(-c2cnc(N)nc2)nc1)c1noc(-c2cnn(C(C)(C)CO)c2)n1 [Example 34, 2-[4-(3-{(2R)-2-[6-(2-aminopyrimidin-5-yl)pyridin-3-yl]-3-methylbutan-2-yl}-1,2,4-oxadiazol-5-yl)-1H-pyrazol-1-yl]-2-methylpropan-1-ol]	6.6	94
